# Test results from US10150767B2, “Therapeutic compounds and uses thereof” (priority 2014, dated 2018).
# Target: TAF1-BD2 (Homo sapiens, UniProt P21675)
# Test: TAF1-BD2 TR-FRET binding assay
# Settings: Assay: TAF-1; biotinylated probe compound 1000, TR-FRET
# Procedure: Specifically, in a 384 well ProxiPlate TAF1-BD2 (6 nM final) was combined with biotin-ligand (50 nM final) in 50 mM HEPES (pH 7.5), 50 mM NaCl, 1 mM TCEP, 0.01% (w/v) BSA, and 0.008% (w/v) Brij-35 either in the presence of DMSO (final 0.2% DMSO) or compound dilution series in DMSO. After 10 minutes incubation at room temperature, a mixture Eu-W1024 Anti-6×His antibody (Perkin Elmer AD0110) and SureLight™ Allophycocyanin-Streptavidin (APC-SA, Perkin Elmer CR130-100) were added to a final concentrations of 0.2 nMolar antibody and 25 nMolar APC-SA, respectively. After twenty minutes of equilibration, the plates were read on an Envision instrument and IC50s calculated using a four parameter non-linear curve fit.
row,IC50,SMILES
1,0.35 µM,"Cn1cc(-c2ccc(C(=O)N3CCOCC3)cc2)c2cc[nH]c2c1=O [Example 30, 6-methyl-4-[4-(morpholine-4-carbonyl)phenyl]-1H-pyrrolo[2,3-c]pyridin-7-one]"
2,0.063 µM,"Cn1cc(-c2ccc(C(=O)NCc3ccccc3)cc2)c2cc[nH]c2c1=O [Example 37, N-benzyl-4-(6-methyl-7-oxo-1H-pyrrolo[2,3-c]pyridin-4-yl)benzamide]"
3,0.68 µM,"CN1CCC(c2cccc(-c3cn(C)c(=O)c4[nH]ccc34)c2)CC1 [Example 43, 6-methyl-4-[3-(1-methyl-4-piperidyl)phenyl]-1H-pyrrolo[2,3-c]pyridin-7-one]"
4,0.44 µM,"CN1CCC(Cc2cccc(-c3cn(C)c(=O)c4[nH]ccc34)c2)CC1 [Example 46, 6-methyl-4-[3-[(1-methyl-4-piperidyl)methyl]phenyl]-1H-pyrrolo[2,3-c]pyridin-7-one]"
